Test system: CHO DG44 cell line
Assay: Effective concentration range of THF: suspension growth of CHO DG44 in HY-CDM media
Type: cell-based, Chinese hamster
Description: 1. Cell line and media: CHO DG44 cell line was used as a DHFR-deficient cell line. The cell line was passaged 80 times or more and suspension adapted in HY-CDM (in-house) media as chemically defined media. The suspension-adapted cell line was used to evaluate the influence of tetrahydrofolate (THF) and dihydrofolate (DHF) and the growth characteristics in commercial chemically defined media. The HY-CDM media were composed of chemically defined components only. Each HY-CDM medium further included a growth factor. HY-CDM media used in Examples 1, 3, and 4 were free of an animal derived lipid mixture, and HY-CDM media used in Example 2 were supplemented with cod liver oil.
2. Cell suspension culture: The cell line was inoculated at a density of 4×10^5 cells/ml and cultured in an Erlenmeyer flask with a 30 ml/125 ml working volume on an orbital shaker at 120 rpm under humidified conditions at 37° C. and 5% CO2. Before inoculation, the cells were centrifuged at 1,000 rpm (×162 g) for 5 min, the supernatant was discarded, and the remaining cells were dispersed into single cells in the heated medium. The cells were passaged three times to minimize the influence of the remaining medium under the experimental conditions. The subcultured cells were evaluated.
3. Density of live cells: The density of live cells was analyzed using a hemocytometer (Neubauer improved bright-line, Marienfeld, Germany), an inverted microscope (CK30, Olympus, Japan), and trypan blue dye exclusion.
In this example, the effective concentration range of THF inducing the suspension growth of the CHO DG44 cell line in the HY-CDM media was evaluated with varying amounts of THF.
To this end, the CHO DG44 cell line was passaged three time at a THF concentration of 0-480 mg/L, and their maximum cell densities and doubling times were measured.

tetrahydrofolate [THF]
Doubling time, Average (THF 0.0016 mg/L, HY-CDM): 24.7 h
Doubling time, Passage 1 (THF 0.0016 mg/L, HY-CDM): 26.8 h
Doubling time, Passage 2 (THF 0.0016 mg/L, HY-CDM): 27.2 h
Doubling time, Passage 3 (THF 0.0016 mg/L, HY-CDM): 20.3 h
Maximum cell density, Average (THF 0.0016 mg/L, HY-CDM): 18.9 ×10^5 cells/ml
Maximum cell density, Passage 1 (THF 0.0016 mg/L, HY-CDM): 19.8 ×10^5 cells/ml
Maximum cell density, Passage 2 (THF 0.0016 mg/L, HY-CDM): 18.2 ×10^5 cells/ml
Maximum cell density, Passage 3 (THF 0.0016 mg/L, HY-CDM): 18.8 ×10^5 cells/ml
Doubling time, Average (THF 0.0031 mg/L, HY-CDM): 24.9 h
Doubling time, Passage 1 (THF 0.0031 mg/L, HY-CDM): 27.1 h
Doubling time, Passage 2 (THF 0.0031 mg/L, HY-CDM): 27.1 h
Doubling time, Passage 3 (THF 0.0031 mg/L, HY-CDM): 20.6 h
Maximum cell density, Average (THF 0.0031 mg/L, HY-CDM): 19.8 ×10^5 cells/ml
Maximum cell density, Passage 1 (THF 0.0031 mg/L, HY-CDM): 20.6 ×10^5 cells/ml
Maximum cell density, Passage 2 (THF 0.0031 mg/L, HY-CDM): 18.2 ×10^5 cells/ml
Maximum cell density, Passage 3 (THF 0.0031 mg/L, HY-CDM): 20.5 ×10^5 cells/ml
Doubling time, Average (THF 0.0063 mg/L, HY-CDM): 23.6 h
Doubling time, Passage 1 (THF 0.0063 mg/L, HY-CDM): 26.4 h
Doubling time, Passage 2 (THF 0.0063 mg/L, HY-CDM): 24.3 h
Doubling time, Passage 3 (THF 0.0063 mg/L, HY-CDM): 20.1 h
Maximum cell density, Average (THF 0.0063 mg/L, HY-CDM): 21.3 ×10^5 cells/ml
Maximum cell density, Passage 1 (THF 0.0063 mg/L, HY-CDM): 21.4 ×10^5 cells/ml
Maximum cell density, Passage 2 (THF 0.0063 mg/L, HY-CDM): 21.2 ×10^5 cells/ml
Maximum cell density, Passage 3 (THF 0.0063 mg/L, HY-CDM): 21.3 ×10^5 cells/ml
Doubling time, Average (THF 0.0125 mg/L, HY-CDM): 23.5 h
Doubling time, Passage 1 (THF 0.0125 mg/L, HY-CDM): 24.6 h
Doubling time, Passage 2 (THF 0.0125 mg/L, HY-CDM): 25.5 h
Doubling time, Passage 3 (THF 0.0125 mg/L, HY-CDM): 20.3 h
Maximum cell density, Average (THF 0.0125 mg/L, HY-CDM): 21.5 ×10^5 cells/ml
Maximum cell density, Passage 1 (THF 0.0125 mg/L, HY-CDM): 23.6 ×10^5 cells/ml
Maximum cell density, Passage 2 (THF 0.0125 mg/L, HY-CDM): 18.8 ×10^5 cells/ml
Maximum cell density, Passage 3 (THF 0.0125 mg/L, HY-CDM): 22.0 ×10^5 cells/ml
Doubling time, Average (THF 0.0250 mg/L, HY-CDM): 22.5 h
Doubling time, Passage 1 (THF 0.0250 mg/L, HY-CDM): 25.8 h
Doubling time, Passage 2 (THF 0.0250 mg/L, HY-CDM): 23.2 h
Doubling time, Passage 3 (THF 0.0250 mg/L, HY-CDM): 18.6 h
Maximum cell density, Average (THF 0.0250 mg/L, HY-CDM): 20.5 ×10^5 cells/ml
Maximum cell density, Passage 1 (THF 0.0250 mg/L, HY-CDM): 22.4 ×10^5 cells/ml
Maximum cell density, Passage 2 (THF 0.0250 mg/L, HY-CDM): 18.0 ×10^5 cells/ml
Maximum cell density, Passage 3 (THF 0.0250 mg/L, HY-CDM): 21.0 ×10^5 cells/ml
Doubling time, Average (THF 0.0500 mg/L, HY-CDM): 20.9 h
Doubling time, Passage 1 (THF 0.0500 mg/L, HY-CDM): 22.8 h
Doubling time, Passage 2 (THF 0.0500 mg/L, HY-CDM): 21.7 h
Doubling time, Passage 3 (THF 0.0500 mg/L, HY-CDM): 18.2 h
Maximum cell density, Average (THF 0.0500 mg/L, HY-CDM): 20.5 ×10^5 cells/ml
Maximum cell density, Passage 1 (THF 0.0500 mg/L, HY-CDM): 22.0 ×10^5 cells/ml
Maximum cell density, Passage 2 (THF 0.0500 mg/L, HY-CDM): 18.5 ×10^5 cells/ml
Maximum cell density, Passage 3 (THF 0.0500 mg/L, HY-CDM): 21.0 ×10^5 cells/ml
Doubling time, Average (THF 0.1000 mg/L, HY-CDM): 21.2 h
Doubling time, Passage 1 (THF 0.1000 mg/L, HY-CDM): 22.7 h
Doubling time, Passage 2 (THF 0.1000 mg/L, HY-CDM): 22.7 h
Doubling time, Passage 3 (THF 0.1000 mg/L, HY-CDM): 18.2 h
Maximum cell density, Average (THF 0.1000 mg/L, HY-CDM): 24.8 ×10^5 cells/ml
Maximum cell density, Passage 1 (THF 0.1000 mg/L, HY-CDM): 27.6 ×10^5 cells/ml
Maximum cell density, Passage 2 (THF 0.1000 mg/L, HY-CDM): 21.8 ×10^5 cells/ml
Maximum cell density, Passage 3 (THF 0.1000 mg/L, HY-CDM): 24.9 ×10^5 cells/ml
Doubling time, Average (THF 0.2000 mg/L, HY-CDM): 20.8 h
Doubling time, Passage 1 (THF 0.2000 mg/L, HY-CDM): 22.7 h
Doubling time, Passage 2 (THF 0.2000 mg/L, HY-CDM): 21.4 h
Doubling time, Passage 3 (THF 0.2000 mg/L, HY-CDM): 18.3 h
Maximum cell density, Average (THF 0.2000 mg/L, HY-CDM): 25.9 ×10^5 cells/ml
Maximum cell density, Passage 1 (THF 0.2000 mg/L, HY-CDM): 26.6 ×10^5 cells/ml
Maximum cell density, Passage 2 (THF 0.2000 mg/L, HY-CDM): 25.0 ×10^5 cells/ml
Maximum cell density, Passage 3 (THF 0.2000 mg/L, HY-CDM): 26.1 ×10^5 cells/ml
Cell density increase (THF 0.4 mg/L, HY-CDM): about 56%
Doubling time, Average (THF 0.4000 mg/L, HY-CDM): 22.1 h
Doubling time, Passage 1 (THF 0.4000 mg/L, HY-CDM): 22.7 h
Doubling time, Passage 2 (THF 0.4000 mg/L, HY-CDM): 24.5 h
Doubling time, Passage 3 (THF 0.4000 mg/L, HY-CDM): 19.2 h
Maximum cell density, Average (THF 0.4000 mg/L, HY-CDM): 29.7 ×10^5 cells/ml
Maximum cell density, Passage 1 (THF 0.4000 mg/L, HY-CDM): 30.2 ×10^5 cells/ml
Maximum cell density, Passage 2 (THF 0.4000 mg/L, HY-CDM): 28.1 ×10^5 cells/ml
Maximum cell density, Passage 3 (THF 0.4000 mg/L, HY-CDM): 30.9 ×10^5 cells/ml
Cell density increase (THF 0.8 mg/L, HY-CDM): ~73%
Doubling time, Average (THF 0.8000 mg/L, HY-CDM): 20.7 h
Doubling time, Passage 1 (THF 0.8000 mg/L, HY-CDM): 22.1 h
Doubling time, Passage 2 (THF 0.8000 mg/L, HY-CDM): 22.2 h
Doubling time, Passage 3 (THF 0.8000 mg/L, HY-CDM): 17.6 h
Maximum cell density, Average (THF 0.8000 mg/L, HY-CDM): 35.3 ×10^5 cells/ml
Maximum cell density, Passage 1 (THF 0.8000 mg/L, HY-CDM): 34.2 ×10^5 cells/ml
Maximum cell density, Passage 2 (THF 0.8000 mg/L, HY-CDM): 35.4 ×10^5 cells/ml
Maximum cell density, Passage 3 (THF 0.8000 mg/L, HY-CDM): 36.4 ×10^5 cells/ml
Doubling time, Average (THF 1.6000 mg/L, HY-CDM): 21.3 h
Doubling time, Passage 1 (THF 1.6000 mg/L, HY-CDM): 21.4 h
Doubling time, Passage 2 (THF 1.6000 mg/L, HY-CDM): 22.0 h
Doubling time, Passage 3 (THF 1.6000 mg/L, HY-CDM): 20.5 h
Maximum cell density, Average (THF 1.6000 mg/L, HY-CDM): 46.9 ×10^5 cells/ml
Maximum cell density, Passage 1 (THF 1.6000 mg/L, HY-CDM): 46.0 ×10^5 cells/ml
Maximum cell density, Passage 2 (THF 1.6000 mg/L, HY-CDM): 47.0 ×10^5 cells/ml
Maximum cell density, Passage 3 (THF 1.6000 mg/L, HY-CDM): 47.8 ×10^5 cells/ml
Doubling time, Average (THF 16.0000 mg/L, HY-CDM): 21.2 h
Doubling time, Passage 1 (THF 16.0000 mg/L, HY-CDM): 22.5 h
Doubling time, Passage 2 (THF 16.0000 mg/L, HY-CDM): 21.2 h
Doubling time, Passage 3 (THF 16.0000 mg/L, HY-CDM): 19.8 h
Maximum cell density, Average (THF 16.0000 mg/L, HY-CDM): 50.1 ×10^5 cells/ml
Maximum cell density, Passage 1 (THF 16.0000 mg/L, HY-CDM): 52.0 ×10^5 cells/ml
Maximum cell density, Passage 2 (THF 16.0000 mg/L, HY-CDM): 48.8 ×10^5 cells/ml
Maximum cell density, Passage 3 (THF 16.0000 mg/L, HY-CDM): 49.6 ×10^5 cells/ml
Doubling time (THF 0.025-16 mg/L, HY-CDM): 21.3 ± 0.7 h
More rapid cell growth compared to control (THF 0.025-16 mg/L, HY-CDM): ≥ 14%
Effect on cell growth (THF 0.1-160 mg/L, chemically defined media): effective in improving the cell growth
Cell growth increase (THF 0.1-0.2 ma/L, HY-CDM): ≥ 35%
Cell density increase (THF 160 mg/L, HY-CDM): ~90%
Doubling time, Average (THF 160.0000 mg/L, HY-CDM): 23.0 h
Doubling time, Passage 1 (THF 160.0000 mg/L, HY-CDM): 25.8 h
Doubling time, Passage 2 (THF 160.0000 mg/L, HY-CDM): 21.6 h
Doubling time, Passage 3 (THF 160.0000 mg/L, HY-CDM): 21.6 h
Maximum cell density, Average (THF 160.0000 mg/L, HY-CDM): 35.7 ×10^5 cells/ml
Maximum cell density, Passage 1 (THF 160.0000 mg/L, HY-CDM): 33.0 ×10^5 cells/ml
Maximum cell density, Passage 2 (THF 160.0000 mg/L, HY-CDM): 36.4 ×10^5 cells/ml
Maximum cell density, Passage 3 (THF 160.0000 mg/L, HY-CDM): 37.6 ×10^5 cells/ml
Effect on cell growth (THF 480 mg/L, HY-CDM): inhibited the cell growth
Maximum cell density, Average (THF 480.0000 mg/L, HY-CDM): 06.3 ×10^5 cells/ml
Maximum cell density, Passage 1 (THF 480.0000 mg/L, HY-CDM): 09.4 ×10^5 cells/ml
Maximum cell density, Passage 2 (THF 480.0000 mg/L, HY-CDM): 04.6 ×10^5 cells/ml
Maximum cell density, Passage 3 (THF 480.0000 mg/L, HY-CDM): 04.8 ×10^5 cells/ml
Cell density increase (maximum) (THF 1.6-16 mg/L, HY-CDM): ≥ 155%
